We go through one molecule from US12337005B2, “Methods of treating thrombosis” (UNIVERSITY OF IOWA RESEARCH FOUNDATION, priority 2020, dated 2025).

For data set [1] the following is noted: cited from earlier work.
The test system of data set [2] is human platelets. Kind of data set: Glucose uptake assay, human platelets. The data set is classed as cell-based. Conditions: human platelets stimulated with convulxin or thrombin; ML265 pre-treated (50 and 100 μM). The method, then:
Glucose uptake was determined in activated versus non-activated platelets using 10 mM ^14C-2-deoxy-glucose. Washed platelets (2×10^8/mL) treated with vehicle (DMSO) or ML265 (50 and 100 μM) were incubated in 1× Tyrode buffer and stimulated with convulxin or thrombin for 10 minutes, placed on ice and then centrifuged at 4000 rpm for 5 minutes. The pellets were washed with cold 1×PBS and solubilized in 1N NAOH. Radioactive counts were determined using a Perkin Elmer TriCarb 2800TR liquid scintillation counter.

Data set [3] has as its system human platelets. In words: ATP secretion from dense granules, human platelets. The data set is classed as cell-based. Conditions: stimulus-activated human platelets pretreated with ML265. The method, then:
(§1) Platelet rich plasma (PRP) or washed platelets (2×10^8/ml) treated with vehicle (DMSO) or ML265 (50 and 100 μM) were stirred (1200 rpm) at 37° C. for 2 min in a whole blood/optical lumi-aggregometer (Chrono-log; model 700-2) before the addition of agonists (convulxin, collagen, thrombin, PAR4, TRAP (PAR1 agonist) or adenosine diphosphate [ADP]). Aggregation was measured as percent change in light transmission, where 100% refers to transmittance through the blank sample (PRP/Buffer). Platelet dense granule secretion was determined by measuring the release of ATP using luciferin-luciferase reagent. To examine the effect of ML265 on ATP secretion, washed platelets were pretreated with vehicle (DMSO) or ML265 (50 and 100 μM) for 10 minutes before stimulation with various agonists. ATP release was performed in a lumi-aggregometer (Chrono-log; model 700-2) at 37° C.

In data set [4] the test system is PI3 kinase-mediated Akt/GSK3β signaling. Kind of data set: Western blot of Akt/GSK3β phosphorylation, mouse platelets. The data set is classed as cell-based. Conditions: murine platelets, convulxin or thrombin mediated, ML265 50 and 100 μM. The method, then:
Platelet proteins were separated on 4-20% SDS-PAGE (sodium dodecyl sulfate-polyacrylamide gel electrophoresis) gradient gels and electrophoretic transferred to PVDF (polyvinylidene fluoride) membrane by using Bio-Rad western blotting system. For PKM2 dimer and tetramer study 6% native gels are used. Membranes were blocked with 5% BSA or skimmed milk in 10 mM Tris-HCl, 150 mM NaCl, pH 8.0 (TBS) containing 0.05% Tween-20 for one hour at room temperature. Blots were incubated for overnight with primary antibody, followed by horseradish peroxidase-labeled secondary antibody for one hour. Blots were developed using enhanced chemiluminescence and quantified using Image J software from NIH (Bethesda, MD, USA).

The test system of the next data set is integrin αIIbβ3. Kind of data set: Integrin αIIbβ3 activation (PAC-1 binding), human platelets. The data set is classed as cell-based. Conditions: convulxin or TRAP-induced.
Data set [5] concerns male obese mice (fed a high-fat diet for 4 months). Kind of data set: FeCl3-injury induced carotid artery thrombosis in obese mice. The data set is classed as in vivo, mouse. Conditions: 5.0% FeCl3 injury, infused with ML265. The source says:
FIGS. 16A-16D. ML265 inhibits platelet aggregation and arterial thrombosis in pre-existing comorbid condition of obesity. Wild-type (C57BL6/J) mice fed a chow and high-fat diet (Cat #TD.06414, Envigo, 60% Kcal from fat) for 4 months. (A) Blood glucose levels (B) Blood glucose levels during the insulin tolerance test. Statistics (A & B): Two-way ANOVA with Tukey's multiple comparisons test (*P<0.05, **P<0.01, ***P<0.001, ****P<0.0001; n=10 mice/group). (C) Platelet rich plasma or washed platelets from obese mice were pretreated with vehicle or ML265 and stimulated with agonists including collagen (1 μg/mL) and thrombin (0.02 U/mL). The results are represented as percent change light transmission after subtracting the blank (platelet poor plasma/Tyrode's buffer). […]
Thrombus formation in the carotid artery after the FeCl3 injury was assessed by intravital microscopy. […] Whatman paper (0.5×1.5 mm) saturated with ferric chloride (5%) solution was applied topically for 1.5 minutes for male and 2 mins for female mice, and thrombus formation in the injured carotid vessel was monitored in real time using a Nikon upright microscope (Plan Fluor 4×/0.2 objective), and thrombus growth overtime was recorded using a high-speed electron-multiplying camera for 40 minutes or until occlusion occurred. […] Videos were evaluated off-line using a Nikon computer-assisted image analysis program.

For a further data set, the system named is mouse whole blood. In words: Bioflux flow chamber assay, mouse whole blood on collagen. The data set is classed as cell-based. The following applies: ML265 150 μM. The method, then:
In vitro thrombosis assays were performed using BioFlux™ 200 (Fluxion Biosciences, USA) microfluidics flow chamber (Nayak et al., 2018). The channels were coated with Type I collagen (100 μg/ml) for one hour at room temperature and then blocked with 0.5% BSA for 30 minutes. Platelets were isolated from citrated whole blood as described above, washed, labeled with the fluorescent dye (calcein AM; 2 μM) and were reconstituted back with PPP and remaining blood containing leukocytes and RBC. The whole blood pretreated with ML265 or vehicle (DMSO) was perfused over the collagen-coated plate at shear stress 1500 s^−1 for 5 minutes. Experiments were performed in triplicates using whole blood from human and mice. The fluorescently labeled platelets/thrombi on the collagen-coated surface were analyzed using ImageJ software from NIH (Bethesda, MD, USA).

The test system of data set [6] is male wild-type mice on C57B16/J background. Kind of data set: FeCl3 injury-induced carotid artery thrombosis. The data set is classed as in vivo, mouse. The method, then: Initially ML265 dissolved in DMSO was mixed with 200 μl of deionized water and administered intra-peritoneally to the at a dose of 25 and 50-mg/Kg body weight. In vivo thrombosis and tail transection assays were performed 10 minutes after administration of ML265 or vehicle infusion by a person who was blinded to the drug and vehicle infusion.
Thrombus formation in the carotid artery after the FeCl3 injury was assessed by intravital microscopy. Briefly, 8-10 weeks old mice were anesthetized using 100-mg/kg ketamine and 10-mg/kg xylazine. Platelets labeled with calcein green (2.5×10^9 platelets per kg) were infused through the retro-orbital plexus. The common carotid artery was carefully exposed and kept moist by super-fusion with warm (˜37° C.) saline. Whatman paper (0.5×1.5 mm) saturated with ferric chloride (5%) solution was applied topically for 1.5 minutes for male and 2 mins for female mice, and thrombus formation in the injured carotid vessel was monitored in real time using a Nikon upright microscope (Plan Fluor 4×/0.2 objective), and thrombus growth overtime was recorded using a high-speed electron-multiplying camera for 40 minutes or until occlusion occurred. The time to form occlusive thrombus was considered as the time required for blood to stop flowing completely for >1 minute. Videos were evaluated off-line using a Nikon computer-assisted image analysis program.

In the next data set the test system is murine platelets. Kind of data set: ATP secretion from dense granules, mouse platelets. The data set is classed as cell-based. Conditions: stimulus-activated mouse platelets pretreated with ML265. The method, then: as §1

In the case of `Cn1c2cc([S+](C)[O-])sc2c2cnn(Cc3cccc(N)c3)c(=O)c21` (stereo not shown) [ML265, 6-[(3-aminophenyl)methyl]-4,6-dihydro-4-methyl-2-(methylsulfinyl)-5H-thieno[2′,3′:4,5]pyrrolo[2,3-d]pyridazine-5-one], the half-life result in data set [1] was “short”. The glucose uptake entry in the data set with human platelets [2] is given as “significantly decreased”. Further, the “dense-granule secretion (ATP release)” value in the data set on human platelets [3] and with murine platelets was “significant decrease” in each case. Besides, in data set [4], the Akt phosphorylation result was “attenuated”. Also, the GSK3β phosphorylation entry in data set [4] is listed as “attenuated”. In addition, the “activation of αIIbβ3 (PAC-1 binding)” value with integrin αIIbβ3 is “decreased”. Moreover, the “arterial thrombosis in pre-existing comorbid condition of obesity” value in data set [5] is on record as “inhibited”. For the same molecule, the “thrombus growth rate vs vehicle control” value in the data set on mouse whole blood (collagen, 1500 s-1) was “marked reduction”. In the data set with mouse whole blood (collagen, 1500 s-1, 5 minutes), the “percent of the area covered by platelets vs vehicle control” value is “marked reduction”. Moreover, the “rate of thrombus growth (slope over time)” value with mouse whole blood (vehicle slope 236.1) is recorded as 61.65; in [6] (male mice pretreated with ML265, 5% FeCl3, vehicle slope 4.862), 1.531. The “mice that did not occlude” value in data set [6] (ML265-pretreated wild-type mice) worked out at 50%. The “time to occlusion, a large number of ML265 pre-treated mice (did not occlude)” value in data set [6] (control group approximately 20 mins) is above 40 min. In data set [6] (male wild-type mice pretreated with ML265), the “time to complete vessel occlusion vs vehicle” value is “significantly prolonged”. In addition, in [6] (male wild-type mice, ML265 i.p. 10 minutes before 5% FeCl3 injury), the “reduction in the extent of thrombus growth vs vehicle” value is around 4 fold.
